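Five compound concentrations were applied to cells in 96-well plates for 48 hours; endpoints were derived by simple linear interpolation of the resulting dose-response curve. The concentration for 50% growth inhibition is given as GI50.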 Activity calls are given as the source filed them. No stated cut-off is given here; in the data, active = GI50 up to about 1.1 µM and inactive = higher.
Columns and labels:
Experiment in all cases: NCI tumour cell line growth inhibition, 48 h
SNB-75 = tested on: SNB-75
OVCAR-8 = tested on: OVCAR-8
M14 = tested on: M14
RPMI-8226 = tested on: RPMI-8226
IGROV-1 = tested on: IGROV-1
HOP-18 = tested on: HOP-18
CCRF-CEM = tested on: CCRF-CEM
SK-OV-3 = tested on: SK-OV-3
M19-MEL = tested on: M19-MEL
SK-MEL-5 = tested on: SK-MEL-5
SF-539 = tested on: SF-539
SF-268 = tested on: SF-268
UACC-62 = tested on: UACC-62
ACHN = tested on: ACHN
LOX IMVI = tested on: LOX IMVI
HCT-15 = tested on: HCT-15
XF498 = tested on: XF498
MOLT-4 = tested on: MOLT-4
COLO 205 = tested on: COLO 205
TK-10 = tested on: TK-10
A549 = tested on: A549
HOP-92 = tested on: HOP-92
786-0 = tested on: 786-0
SF-295 = tested on: SF-295
HCC 2998 = tested on: HCC 2998
K562 = tested on: K562
SK-MEL-28 = tested on: SK-MEL-28
LXFL 529 = tested on: LXFL 529
OVCAR-4 = tested on: OVCAR-4
NCI-H23 = tested on: NCI-H23
DMS-273 = tested on: DMS-273
EKVX = tested on: EKVX
DMS-114 = tested on: DMS-114
NCI-H460 = tested on: NCI-H460
OVCAR-3 = tested on: OVCAR-3
DLD-1 = tested on: DLD-1
HL-60 = tested on: HL-60
KM12 = tested on: KM12
SW-620 = tested on: SW-620
HCT-116 = tested on: HCT-116
SK-MEL-2 = tested on: SK-MEL-2
HT-29 = tested on: HT-29
U-251 = tested on: U-251
OVCAR-5 = tested on: OVCAR-5
Malme-3M = tested on: Malme-3M
NCI-H522 = tested on: NCI-H522
HOP-62 = tested on: HOP-62
SN12C = tested on: SN12C
A498 = tested on: A498
CAKI-1 = tested on: CAKI-1

O=C(O)CCN(CCCCN(CCC(=O)O)CCC(=O)O)CCC(=O)O
GI50 (SNB-75): > 100 µM (inactive) | GI50 (OVCAR-8): > 100 µM (inactive) | GI50 (M14): > 100 µM (inactive) | GI50 (RPMI-8226): > 100 µM (inactive) | GI50 (IGROV-1): > 100 µM (inactive) | GI50 (HOP-18): > 100 µM (inactive) | GI50 (CCRF-CEM): > 100 µM (inactive) | GI50 (SK-OV-3): > 100 µM (inactive) | GI50 (M19-MEL): > 100 µM (inactive) | GI50 (SK-MEL-5): > 100 µM (inactive) | GI50 (SF-539): > 100 µM (inactive) | GI50 (SF-268): > 100 µM (inactive) | GI50 (UACC-62): > 100 µM (inactive) | GI50 (ACHN): > 100 µM (inactive) | GI50 (LOX IMVI): > 100 µM (inactive) | GI50 (HCT-15): > 100 µM | GI50 (XF498): > 100 µM (inactive) | GI50 (MOLT-4): > 100 µM (inactive) | GI50 (COLO 205): > 100 µM (inactive) | GI50 (TK-10): > 100 µM (inactive) | GI50 (A549): > 100 µM (inactive) | GI50 (HOP-92): > 100 µM (inactive) | GI50 (786-0): > 100 µM (inactive) | GI50 (SF-295): > 100 µM (inactive) | GI50 (HCC 2998): > 100 µM (inactive) | GI50 (K562): > 100 µM (inactive) | GI50 (SK-MEL-28): > 100 µM (inactive) | GI50 (LXFL 529): > 100 µM (inactive) | GI50 (OVCAR-4): > 100 µM (inactive) | GI50 (NCI-H23): > 100 µM (inactive) | GI50 (DMS-273): > 100 µM (inactive) | GI50 (EKVX): > 100 µM (inactive) | GI50 (DMS-114): > 100 µM (inactive) | GI50 (NCI-H460): > 100 µM (inactive) | GI50 (OVCAR-3): > 100 µM (inactive) | GI50 (DLD-1): > 100 µM (inactive) | GI50 (HL-60): > 100 µM (inactive) | GI50 (KM12): > 100 µM (inactive) | GI50 (SW-620): > 100 µM (inactive) | GI50 (HCT-116): > 100 µM (inactive) | GI50 (SK-MEL-2): > 100 µM (inactive) | GI50 (HT-29): > 100 µM (inactive) | GI50 (U-251): > 100 µM (inactive) | GI50 (OVCAR-5): > 100 µM (inactive) | GI50 (Malme-3M): > 100 µM (inactive) | GI50 (NCI-H522): > 100 µM (inactive) | GI50 (HOP-62): > 100 µM (inactive) | GI50 (SN12C): > 100 µM (inactive) | GI50 (A498): > 100 µM (inactive) | GI50 (CAKI-1): > 100 µM (inactive)

From ChEMBL document CHEMBL1201862, “PubChem BioAssay data set” (2004)
